Measurements from ChEMBL document CHEMBL4311969, “Polygala tenuifolia-Acori tatarinowii herbal pair as an inspiration for substituted cinnamic α-asaronol esters: Design, synthesis, anticonvulsant activity, and inhibition of lactate dehydrogenase study” (Eur J Med Chem, 2019).
“And” between values parts separate entries of the source, which are not always exact repeats. Identical values can stand only once. The source made the active and inactive calls. The rule behind the calls is not given here.

Key:
Mus musculus [1] = test: Anticonvulsant activity in Kunming mouse assessed as reduction in ScPTZ-induced tonic seizure rate at 300 mg/kg, ip administered 0.5 hrs before ScPTZ stimulation relative to control; assay type: functional; parameters: scale not given: the % may be the effect or the level left
Mus musculus [2] = test: […] activity in ip dosed Kunming mouse assessed as reduction in formalin-induced paw licking administered 0.5 hrs before formalin stimulation; assay type: functional
Homo sapiens [3] = species on record: Homo sapiens; test: Inhibition of human LDH5 at 0.5 mM using sodium pyruvate as substrate by UV-VIS spectrophotometry method relative to control
Mus musculus [4] = test: Anticonvulsant activity in Kunming mouse assessed as MES-induced hind limb extension at 100 mg/kg, ip administered 0. 5 hrs before MES stimulation relative to control; assay type: functional
Mus musculus [5] = test: Anticonvulsant activity in Kunming mouse assessed as reduction in ScPTZ-induced seizure at 100 mg/kg, ip administered 0.25 to 2 hrs before ScPTZ stimulation relative to control; assay type: functional
Mus musculus [6] = test: Anticonvulsant activity in Kunming mouse assessed as MES-induced hind limb extension at 100 mg/kg, ip administered 0. 5 to 4 hrs before MES stimulation relative to control; assay type: functional
Mus musculus [7] = test: Anticonvulsant activity in Kunming mouse assessed as MES-induced hind limb extension at 50 mg/kg, ip administered 0.5 and 2 hrs before MES stimulation relative to control; assay type: functional
Mus musculus [8] = test: Anticonvulsant activity in Kunming mouse assessed as reduction in ScPTZ-induced clonic seizure at 300 mg/kg, ip administered 0.5 hrs before ScPTZ stimulation relative to control; assay type: functional; parameters: scale not given: the % may be the effect or the level left
Mus musculus [9] = test: Anticonvulsant activity in Kunming mouse assessed as MES-induced hind limb extension at 100 mg/kg, ip administered 4 hrs before MES stimulation; assay type: functional, organism-based
Mus musculus [10] = test: Anticonvulsant activity in Kunming mouse assessed as reduction in ScPTZ-induced seizure at 300 mg/kg, ip administered 0.25 to 2 hrs before ScPTZ stimulation relative to control; assay type: functional; parameters: scale not given: the % may be the effect or the level left
Mus musculus [11] = test: Anticonvulsant activity in Kunming mouse assessed as reduction in Sc3-MP-induced clonic seizure rate at 300 mg/kg, ip administered 0.5 hrs before Sc3-MP stimulation relative to control; assay type: functional; parameters: scale not given: the % may be the effect or the level left
Mus musculus [12] = test: Anticonvulsant activity in ip dosed Kunming mouse assessed as reduction in ScPTZ-induced seizure administered 0.5 hrs before ScPTZ stimulation; assay type: functional
[13] = Neurotoxicity against Kunming mouse assessed as time remained in rod at 100 mg/kg, ip administered 0.5 to 2 hrs by rotarod test; assay type: toxicity, organism-based; settings: in vivo
Mus musculus [14] = test: Anticonvulsant activity in Kunming mouse assessed as reduction in ScPTZ-induced mortality rate at 300 mg/kg, ip administered 0.5 hrs before ScPTZ stimulation relative to control; assay type: functional; parameters: scale not given: the % may be the effect or the level left
Mus musculus [15] = test: Anticonvulsant activity in Kunming mouse assessed as MES-induced hind limb extension at 50 mg/kg, ip administered 0.5 to 4 hrs before MES stimulation relative to control; assay type: functional
Mus musculus [16] = test: Anticonvulsant activity in Kunming mouse assessed as reduction in ScPTZ-induced clonic seizure at 100 mg/kg, ip administered 0.5 hrs before ScPTZ stimulation relative to control; assay type: functional; parameters: scale not given: the % may be the effect or the level left
Mus musculus [17] = test: Anticonvulsant activity in Kunming mouse assessed as reduction in Sc3-MP-induced seizure ip dosed measured at 0.5 hrs before Sc3-MP stimulation; assay type: functional
Homo sapiens [18] = species on record: Homo sapiens; test: Inhibition of human LDH1 at 0.5 mM using sodium pyruvate as substrate measured for 60 sec for every 5 mins by LC/MS-MS analysis
[19] = (§1) Protective index, ratio of TD50 for neurotoxicity against ip dosed Kunming mouse assessed as time remained in rod measured at 0.5 hrs by rotarod test to ED50 for […] activity in ip dosed Kunming mouse assessed as reduction in formalin-induced paw licking administered 0.5 hrs before formalin stimulation; assay type: toxicity, organism-based; settings: in vivo, read-out: PI
[20] = Neurotoxicity against ip dosed Kunming mouse assessed as time remained in rod measured at 0.5 hrs by rotarod test; assay type: toxicity, organism-based; settings: in vivo
Mus musculus [21] = test: Anticonvulsant activity in Kunming mouse assessed as reduction in Sc3-MP-induced tonic seizure rate at 300 mg/kg, ip administered 0.5 hrs before Sc3-MP stimulation relative to control; assay type: functional; parameters: scale not given: the % may be the effect or the level left
Homo sapiens [22] = species on record: Homo sapiens; test: Inhibition of human LDH5 at 0.5 mM using sodium pyruvate as substrate measured for 60 sec for every 5 mins by LC/MS-MS analysis
Mus musculus [23] = test: Anticonvulsant activity in Kunming mouse assessed as MES-induced hind limb extension at 100 mg/kg, ip administered 0. 5 to 2 hrs before MES stimulation; assay type: functional, organism-based
Mus musculus [24] = test: Anticonvulsant activity in ip dosed Kunming mouse assessed as MES-induced hind limb extension administered 0.5 hrs before MES stimulation; assay type: functional
[25] = as §1, with “Sc3-MP-induced seizure” for “formalin-induced paw licking”, “Sc3-MP” for “formalin”; assay type: toxicity, organism-based; settings: in vivo, read-out: PI
Homo sapiens [26] = species on record: Homo sapiens; test: Inhibition of human LDH1 at 0.5 mM using sodium pyruvate as substrate by UV-VIS spectrophotometry method relative to control
Mus musculus [27] = test: Anticonvulsant activity in Kunming mouse assessed as reduction in ScPTZ-induced tonic seizure rate at 100 mg/kg, ip administered 0.5 hrs before ScPTZ stimulation relative to control; assay type: functional; parameters: scale not given: the % may be the effect or the level left
[28] = Protective index, ratio of TD50 for neurotoxicity against ip dosed Kunming mouse assessed as time remained in rod measured at 0.5 hrs by rotarod test to ED50 for anticonvulsant activity in ip dosed Kunming mouse assessed as MES-induced hind limb extension administered 0.5 hrs; assay type: toxicity, organism-based; settings: in vivo, read-out: PI
[29] = as §1, with “ScPTZ-induced seizure” for “formalin-induced paw licking”, “ScPTZ” for “formalin”; assay type: toxicity, organism-based; settings: in vivo, read-out: PI
Mus musculus [30] = test: Anticonvulsant activity in Kunming mouse assessed as reduction in Sc3-MP-induced seizure at 300 mg/kg, ip administered 0.25 and 1 hrs before Sc3-MP stimulation relative to control; assay type: functional, organism-based
Mus musculus [31] = test: Anticonvulsant activity in Kunming mouse assessed as reduction in Sc3-MP-induced seizure at 300 mg/kg, ip administered 0.5 hrs before Sc3-MP stimulation relative to control; assay type: functional; parameters: scale not given: the % may be the effect or the level left
Mus musculus [32] = test: Anticonvulsant activity in Kunming mouse assessed as reduction in ScPTZ-induced seizure at 100 mg/kg, ip administered 0.25 and 1 hrs before ScPTZ stimulation relative to control; assay type: functional; parameters: scale not given: the % may be the effect or the level left
[33] = Noncompetitive inhibition of human LDH1 at 0.5 mM using sodium pyruvate as substrate by UV-VIS spectrophotometry method based Lineweaver-Burk plot analysis
Mus musculus [34] = test: Anticonvulsant activity in Kunming mouse assessed as MES-induced hind limb extension at 100 mg/kg, ip administered 3 hrs before MES stimulation; assay type: functional, organism-based
[35] = Noncompetitive inhibition of human LDH5 at 0.5 mM using sodium pyruvate as substrate by UV-VIS spectrophotometry method based Lineweaver-Burk plot analysis
Homo sapiens [36] = species on record: Homo sapiens; test: Inhibition of human LDH5 assessed as remaining activity at 0.5 mM using sodium pyruvate as substrate by UV-VIS spectrophotometry method relative to control
Homo sapiens [37] = species on record: Homo sapiens; test: Inhibition of human LDH1 assessed as remaining activity at 0.5 mM using sodium pyruvate as substrate by UV-VIS spectrophotometry method relative to control
Mus musculus [38] = test: Anticonvulsant activity in Kunming mouse assessed as reduction in ScPTZ-induced seizure at 100 mg/kg, ip administered 0.5 hrs before ScPTZ stimulation relative to control; assay type: functional; parameters: scale not given: the % may be the effect or the level left
Mus musculus [39] = test: Anticonvulsant activity in Kunming mouse assessed as reduction in ScPTZ-induced seizure at 100 mg/kg, ip administered 1 hr relative to control; assay type: functional; parameters: scale not given: the % may be the effect or the level left

Structure (SMILES) | Activity (Mus musculus [1]) | ED50 (Mus musculus [2]) | inhibition (Homo sapiens [3]) | Activity (Mus musculus [4]) | Activity (Mus musculus [5]) | Activity (Mus musculus [6]) | Activity (Mus musculus [7]) | Activity (Mus musculus [8]) | Activity (Mus musculus [10]) | Activity (Mus musculus [11]) | ED50 (Mus musculus [12]) | Activity [13] | Activity (Mus musculus [15]) | Activity (Mus musculus [16]) | ED50 (Mus musculus [17]) | inhibition (Homo sapiens [18]) | selectivity ratio at 0.5 h [19] | TD50 at 0.5 h [20] | Activity (Mus musculus [21]) | inhibition (Homo sapiens [22]) | also measured
COc1ccccc1/C=C/C(=O)OC/C=C/c1cc(OC)c(OC)cc1OC | 50% | 113 mg/kg and 294 µmol/kg | inactive | 100% | inactive | 25 - 100% | 75% | 100% | 50% | 100% | 240 mg/kg and 625 µmol/kg | Non-Toxic | 50% | 100% | > 300 mg/kg and 780 µmol/kg | 2% | > 8.9 | > 1000 mg/kg and 2600 µmol/kg | 100% | 2% | Activity (Mus musculus [9]): Active; Activity (Mus musculus [14]): 25%; Activity (Mus musculus [23]): Active; ED50 (Mus musculus [24]): 39 mg/kg and 101 µmol/kg; selectivity ratio at 0.5 h [25]: 3.3; inhibition (Homo sapiens [26]): inactive; Activity (Mus musculus [27]): 100%; selectivity ratio at 0.5 h [28]: > 25.6; selectivity ratio at 0.5 h [29]: > 4.2
COc1cc(OC)c(OC)cc1/C=C/COC(=O)/C=C/c1cc(OC)c(OC)c(OC)c1 | 25% | 85.5 mg/kg and 192 µmol/kg | 13% | 100% | inactive | 25 - 100% | 75% | 100% | 50% | 100% | 204 mg/kg and 458 µmol/kg | Non-Toxic | 50% | 100% | > 200 mg/kg and > 450 µmol/kg | 10% | 11.6 | 2220 µmol/kg and 988 mg/kg | 75% | 13% | Activity (Mus musculus [30]): Active; Activity (Mus musculus [31]): 50%; Activity (Mus musculus [32]): 75%; Ki [33]: 14.1 µM; Activity (Mus musculus [34]): Active; Ki [35]: 3.35 µM; Activity (Mus musculus [23]): Active; ED50 (Mus musculus [24]): 74.7 µmol/kg and 33.2 mg/kg; selectivity ratio at 0.5 h [25]: 3.3; inhibition (Homo sapiens [26]): 10%; Activity (Mus musculus [27]): 100%; selectivity ratio at 0.5 h [28]: 29.8; selectivity ratio at 0.5 h [29]: 4.9
CCCC(CCC)C(=O)O | – | – | – | – | – | – | – | – | – | – | – | – | – | – | – | – | – | – | – | – | Activity (Homo sapiens [36]): 100%; Activity (Homo sapiens [37]): 100%
COc1cc(OC)c(OC)cc1/C=C/COC(=O)/C=C/c1ccc(F)cc1 | 0% | 43.4 mg/kg and 116 µmol/kg | < 9% | 100% | inactive | 25 - 100% | 75% | 100% | 50% | 100% | 167 mg/kg and 449 µmol/kg | Non-Toxic | 50% | 100% | > 300 mg/kg and > 806 µmol/kg | 5% | 23 | > 2690 µmol/kg and > 1000 mg/kg | 75% | 5% | Activity (Mus musculus [38]): 100%; Activity (Mus musculus [9]): Active; Activity (Mus musculus [34]): Active; Activity (Mus musculus [23]): Active; ED50 (Mus musculus [24]): 92.9 µmol/kg and 34.6 mg/kg; selectivity ratio at 0.5 h [25]: 5; inhibition (Homo sapiens [26]): < 5%; Activity (Mus musculus [27]): 100%; selectivity ratio at 0.5 h [28]: > 28.9; selectivity ratio at 0.5 h [29]: > 5.9; Activity (Mus musculus [39]): 75%
